Laboratory results reported in patent US6524527B2 (Natural Corporation, priority 1998, dated 2003).

Experiments:
Assay type in all cases: physicochemical
[1] = Oxidation of CLA methyl ester in open test tube, GLC composition; conditions: for relative content, Day 0: CLA methyl ester sample before oxidation; for relative content, Day 115: open test tube, 115 days, room temperature, free access to air
Procedure: This example describes the oxidation of CLA exposed to open air. A small sample of methyl ester was prepared and stored in an open test tube for 115 days at room temperature with free access to air. […] A chromatogram of the same sample was also run on a polar column. The results indicated the presence of a large number of short chain polar components (i.e., breakdown products).

[2] = Peroxide value (PV), colorimetric ferric thiocyanate method; conditions: after storage in open glass
Description: The present invention is not limited to any one mechanism. Indeed, an understanding of the mechanism of the invention is not necessary to produce the composition or perform the methods of the present invention.

[3] = Oil stability index (OSI) of CLA triacylglyceride with added antioxidants; conditions: antioxidant added to CLA triacylglyceride, 0-0.1 %
Procedure: In some embodiments, oxidation of CLA is prevented by the addition of metal oxidant chelators or peroxide scavengers to the finished product. In some embodiments, the amount of oxidation is measured by the oil stability index (OSI). The OSI (See e.g., AOCS official method Cd 12b-92) is a measurement of an oil's resistance to oxidation. It is defined mathematically as the time of maximum change of the rate of oxidation. This rate can be determined mathematically. Experimentally, the OSI is calculated by measuring the change in conductivity of deionized water is which volatile organic acids (oxidation products) are dissolved. When performing OSI measurements, it is important to avoid contamination by trace amounts of metals, which can accelerate the oxidation process. This is generally accomplished by careful washing of all glassware used with a cleaning solution lacking chromate or surfactants. Water must be deionized and all solvents must be of a highly purified grade. […]
The oxygen stability index (OSI) was measured using a method known in the art (AOCS official method Cd 12b-92 using an OSI apparatus from Omnion Instruments). […] The conductivity of the water is continually monitored over time. The OSI (the point of maximum change of the rate of oxidation) is determined mathematically. […]

Row | relative content, Day 0 [1] | relative content, Day 115 [1] | peroxide values (PV) [2] | increase of the OSI value by addition of antioxidant [3] | Compound
1 | 4.14 | 3.19 | – | – | CCCCCCCC/C=C\CCCCCCCC(=O)O [C18:1, c9, oleic acid]
2 | 7.68 | 0 | – | – | CCCCCC/C=C/C=C\CCCCCCCC(=O)O [CLA, c9, t11, c9,t11-octadecadienoic]
3 | 0.09 | 0 | – | – | CCCCC/C=C\C=C/CCCCCCCCC(=O)O [CLA, c10, c12, c10,c12 octadecadienoic acid]
4 | 0.13 | 0.10 | – | – | CCCCCC/C=C\CCCCCCCCCC(=O)O [C18:1, c11]
5 | 0.11 | 0 | – | – | CCCCCC/C=C\C=C/CCCCCCCC(=O)O [CLA, c9, c11]
6 | 0.06 | 0.03 | – | – | CCCCC/C=C\C/C=C\CCCCCCCC(=O)O [C18:2, c9, c12, 9,12-linoleic acid]
7 | 1.36 | 1027 | – | – | CCCCCCCCCCCCCCCC(=O)O [C 16:0, palmitic acid]
8 | – | – | 370 | – | CCCCC/C=C\C/C=C\CCCCCCCC(=O)O [linoleic acid]
9 | 7.63 | 0 | – | – | CCCCC/C=C\C=C\CCCCCCCCC(=O)O [CLA, t10, c12, t10,c12-octadecadienoic acid]
10 | – | – | – | did not significantly increase | Cc1c(C)c2c(c(C)c1O)CC[C@@](C)(CCC[C@H](C)CCC[C@H](C)CCCC(C)C)O2 [alpha-tocopherol]
11 | 0 | 0.33 | – | – | CCCCCCCC/C=C/CCCCCCCC(=O)O [C18:1, t9]
